{"source": "patent EP3283473B1", "about": "“GHRELIN O-ACYL TRANSFERASE INHIBITORS” (Eli Lilly and Company, priority 2015, dated 2016)", "target": "T1, human GOAT (Homo sapiens, UniProt Q96T53)", "T1 construct": "His; made in house; host or cells: Sf9 insect cells (baculovirus, pAN51 vector); microsomal membrane preparation", "T1 sequence (Q96T53 1-435)": "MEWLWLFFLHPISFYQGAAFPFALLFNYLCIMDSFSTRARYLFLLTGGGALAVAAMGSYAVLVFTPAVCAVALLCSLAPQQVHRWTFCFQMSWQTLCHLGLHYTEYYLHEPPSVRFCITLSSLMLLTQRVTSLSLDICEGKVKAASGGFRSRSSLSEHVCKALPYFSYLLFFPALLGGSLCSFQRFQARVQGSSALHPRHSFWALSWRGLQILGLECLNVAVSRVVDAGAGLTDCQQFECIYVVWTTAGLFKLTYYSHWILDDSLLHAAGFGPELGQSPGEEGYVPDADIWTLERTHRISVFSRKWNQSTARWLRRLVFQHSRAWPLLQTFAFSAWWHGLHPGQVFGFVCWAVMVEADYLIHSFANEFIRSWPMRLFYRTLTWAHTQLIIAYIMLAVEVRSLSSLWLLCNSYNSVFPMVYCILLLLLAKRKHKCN", "assay": "In vitro cell free human GOAT enzymatic assay", "type": "biochemical", "conditions": "GOAT-His/sf9 membrane preparation", "method": "Human GOAT gene (Accession number: NM_001100916) is subcloned to pAN51 baculoviral expression vector. Baculovirus stock is prepared following the Bac-to-Bac Protocol provided by the vendor, Invitrogen, California, USA. Five mililiters of human GOAT baculoviral stock are added to 500 mL Sf9 cells in HyQ SFX-Insect™ media (HyClone catalog number SH30278.02) at the density of 1 × 10^6 cells per milliliter in a 2 L Erlenmeyer flask. The flask with human GOAT gene infected Sf9 cells is put on a plate shaker at 120 rpm at 28 °C for 48 hours. After 48 hours incubation, cells are centrifuged at 1,000xg for 10 min at 4 °C. The cell pellets are collected and stored at -80 °C in a freezer until ready for further processing.\nOne gram cell pellets are suspended in 9 mL chilled homogenization buffer (50 mM Tris-HCl, 250 mM sucrose, adjusted to pH 7.5 and sterile filtered through 0.2 µm Millipore filter). The cell suspension is transferred to a Dounce glass homogenizer. Cell pellets are homogenized with 40 strokes on ice. The homogenate is centrifuged at 3,000 rpm in a Beckman swing bucket rotor at 4 °C for 10 min to remove unbroken cells. The supernatant is collected and centrifuged at 40,000 xg for 1 hour at 4 °C. The resulting membrane pellet is suspended in the homogenization buffer using a Dounce glass homogenizer and stored at -20 °C in the freezer for the assay. For long term storage of the human GOAT enzyme membrane preparation, the suspended membrane is stored in a -80 °C freezer.\nPrepare test compounds in DMSO to make up a 0.2 mM stock solution. Serially dilute the stock solution in DMSO to obtain a ten-point dilution curve with final compound concentrations ranging from 10 µM to 0.5 nM in a 96-well round-bottom plate. Prepare enzyme and substrate solutions in assay buffer (0.02% TWEEN™-20 in 50 mM Tris, pH 7.5/250 mM sucrose/1 mg/mL BSA/10 mM EDTA). Add diluted compound (1 µL) to each well of row A to N of a corresponding low protein binding 384 well plate. Add human GOAT substrate mix (10 µL), consisting of human desacyl-ghrelin-biotin (CPC Scientific Inc., 6.0 µM final), octanoyl-coenzyme A (CoA) (Sigma, 60 µM final) and an AG specific antibody (WO 2006/091381)(1.0 µg/mL final), to the compounds. Add GOAT-His/sf9 enzyme preparation, that has been prepared in assay buffer (9 µL), to each well of the plate containing substrate and test compounds resulting in a final concentration of 0.01 µg/mL to initiate the reaction. Incubate the mixture for 1 hour at RT on a gently rotating oscillator. Add 4M guanidine hydrochloride (20 µL) to all wells, mix, and incubate for 3 hours to stop the reaction.\nPrepare ELISA plates (STREPTAVIDIN SPECTRAPLATE™ 384, Perkin Elmer) by blocking with 2% Heat-Inactivated FBS in PBS (40 µL) (Invitrogen) blocking buffer for 3 hours. Aspirate the blocking buffer from ELISA plate and add blocking buffer (23 µL) to columns 1-24, rows A-N. Reserve rows O and P for the acylghrelin standard curve. Add the reaction mix (2 µL) to the ELISA plates. Prepare a 10 point standard curve (biotin-labeled octanoyl-ghrelin) by serial 2X dilution in blocking buffer containing 0.2M Guanidine hydrochloride starting at 2.5 pM. Incubate the reaction mixture or biotin-labeled AG standard in the ELISA plate overnight at 4 °C. The following day, wash the plate 3× with wash buffer (0.1% TWEEN™-20/PBS, 100 µL per well in each wash cycle). […] Read plates at 450 nm using an ENVISION® Multilabel plate reader. […]"}
{"compound": "Cc1nc(C(F)(F)F)nc(N)c1CCC1CCN(C(=O)[C@H](C)NC(=O)c2ccnn2C)CC1", "note": "[Example 2, N-[(1S)-2-[4-[2-[4-Amino-6-methyl-2-(trifluoromethyl)pyrimidin-5-yl]ethyl]-1-piperidyl]-1-methyl-2-oxo-ethyl]-2-methyl-pyrazole-3-carboxamide]", "values": [{"measurement": "IC20", "result": "69.5 ± 0.6", "unit": "nM"}]}
